Measurements published in patent US8314234B2, “Bicyclic pyrimidine kinase inhibitors” (Janssen Pharmaceutica N.V., priority 2006, dated 2012).

Assays:
EGFR = target: T1, EGFR (Homo sapiens, UniProt P00533); assay: EGFR Kinase Assay; type: biochemical; details: test concentration of 2 μM
T1 construct: intracellular portion of EGFR started at nucleotide 2189 (corresponding to amino acid 667) and ended at the termination codon; made in house; host or cells: Sf9 insect cells (baculovirus)
Source text: The EGFR kinase used was a fusion of Glutathione-S-Transferase (GST) and a PCR amplified intracellular portion of EGFR (NM_005228). The intracellular portion of EGFR started at nucleotide 2189 (corresponding to amino acid 667) and ended at the termination codon. The portion was PCR amplified with primers that added the lambda attB sequences to each end, recombined into an entry vector, then into a GST destination vector (as described in Gateway Technologies Manual by Invitrogen Corporation, Carlsbad, Calif.).
The destination vector was recombined in the DH10BAC strain of bacteria to produce a bacmid. The bacmid was transfected into Sf9 cells and the supernatant containing the baculovirus was collected. The GSTEGFR protein was purified using large cultures of Sf9 cells infected with stock virus. After an appropriate period of time, the cells were collected and lysed. The GSTEGFR was then purified from the lysate on Glutathione-Sepharose columns (as described by Amersham Biosciences, Buckinghamshire, United Kingdom).
The EGFR substrate was prepared by biotinylating polyGluTyr (128 mg) (Sigma, St. Louis, Mo.) in a 1×PBS buffer incubated together with a 12-fold molar excess of Sulfo-NHS-LC-Biotin on ice for at least 2 hrs. The free biotin was separated from the biotinylated polyGluTyr on a gel filtration column.
A mixture of a 10× kinase buffer (500 mM Tris at pH 8.0, 100 mM Magnesium Chloride and 1 mM Sodium Vanadate), DTT (1 mM final from 500 mM stock), ATP (5 μM final from 10 mM stock), biotinylated polyGluTyr (10 μg/μL stock), γ-^33P ATP (10 μCi/μL stock) and water was added to each well (90 μL/well) of a Streptavidin Flashplate (Perkin Elmer, Wellesley, Mass.).
Test compound in 100% DMSO (2 μL) was added to the appropriate wells. Diluted GSTEGFR (1:300 dilution in 50 mM Tris at pH 8.0 and 0.1% bovine serum albumin) (10 μL) was added to the wells to initiate the reactions.
The plates were incubated at 30° C. for 1 hr with shaking. The reacted contents were removed and the plates were sequentially washed three times with a 1×PBS stop buffer (300 μL without Magnesium and Calcium) and 100 mM EDTA. After the final wash, the same stop buffer (200 μL) was added to the wells. The plates were then sealed and read on the TopCount scintillation counter.
Test compounds were assayed in triplicate at 16 concentrations at half-log dilutions starting at 200 uM. A maximum and minimum signal for the assay was determined on each plate. The percent inhibition of a test compound was calculated according to the formula
For a series of test concentrations, the IC50 was derived by graphing percent inhibition against the log of the concentrations tested for a given compound. The percent inhibition results are shown in Table 1 at a test concentration of 2 μM. For those compounds with an IC50, the IC50 value is shown in parentheses.

CDK1 = target: T2, CDK1 (Homo sapiens, UniProt P06493); assay: CDK-1 screening assay; type: biochemical
T2 construct: purchased New England Biolabs, Beverly, Mass; 6020; host or cells: insect cells
Method: (§1) 70 μL of the kinase reaction mixture was dispensed into the well of a streptavidin coated FlashPlate™ (Cat. #SMP103, NEN, Boston, Mass.).
(§2) Test compound stock in 100% DMSO (1 μL) was added to the wells resulting in a final concentration of 1% DMSO in the reaction with a 100 μL final reaction volume. Each enzyme was diluted in 50 mM Tris-HCl pH=8.0, 0.1% BSA and 30 μL was added to each well to initiate the reaction. The reaction was incubated for one hour at 30° C. At the end of the 1 hr incubation, the reaction was terminated by aspirating the mixture from the plate and washing the wells twice with PBS containing 100 mM EDTA. The biotinylated peptide substrate became immobilized on the Flashplate and the incorporation of ^33P-γ-ATP was measured by reading the plate on a scintillation counter. Inhibition of the enzymatic activity was measured by observing a reduced amount of ^33P-γ-ATP incorporated into the immobilized peptide.
(§3) A maximum and minimum signal for the assay was determined on each plate. The percent inhibition of a test compound was calculated according to the formula: […]
(§4) The term “ND” means “not determined.”

CDK2 = target: T3, CDK2 (Homo sapiens, UniProt P24941); assay: CDK-2 screening assay; type: biochemical
T3 construct: purchased Upstate Biotech, Lake Placid, N.Y
Method: as §1, §2
The CDK2 enzyme in complex with cyclin A is commercially available (Upstate Biotech, Lake Placid, N.Y.).
as §3, §4

VEGFR2 = VEGFR2 (Rattus norvegicus, UniProt O08775); assay: VEGFR2 screening assay; type: biochemical
Method: A kinase reaction mixture was prepared containing 50 mM Tris-HCl pH=8, 10 mM MgCl2, 0.1 mM […], 1 mM DTT, 10 μM ATP, 0.025 μM biotinylated histone-H1 peptide substrate and 0.2 μCuries per well ^33P-γ-ATP (2000-3000 Ci/mmol). 70 μL of the kinase reaction mixture was dispensed into the well of a streptavidin coated FlashPlate™ (Cat. #SMP103, NEN, Boston, Mass.).
as §2
The VEGF-R2 enzyme is a fusion protein containing a polyhistidine tag at the N terminus followed by amino acids 786 to 1343 of the rat VEGF-R2 kinase domain (Accession number U93306). The assay used 150 ng of the N-terminal biotinylated peptide biotin-[…]-amide SEQ ID NO: 2) (VEGF-R2) per well.
as §3
For a series of test concentrations, the IC50 was derived by graphing percent inhibition against the log of the concentrations tested for a given compound with results shown in Table 2. For those compounds without an IC50, the inhibition values in percent are shown at a test concentration of 2 μM. The term “ND” means “not determined.”

[1] = tested on: HeLa cervical adenocarcinoma; assay: Cell Proliferation Inhibition Assay (14C-thymidine incorporation), HeLa; type: cell-based; details: Homo sapiens
Source text: (§5) The ability of a test compound to inhibit unregulated cell proliferation may be determined by measuring incorporation of ^14C-labelled thymidine into newly synthesized DNA within cell lines derived from carcinomas originating from several tissues. Accordingly, the anti-proliferative effect of a compound on cells with a variety of phenotypes may be determined.
(§6) Carcinoma cell lines include those such as HeLa cervical adenocarcinoma (American Type Culture Collection (ATCC), Virginia, Cat. #CCL-2), A375 malignant melanoma (ATCC CRL-1619), SK-OV-3 ovarian adenocarcinoma (ATCC HTB-77), HCT-116 colon carcinoma (CCL-247), PC-3 prostate adenocarcinoma (ATCC CRL-1435), and MDA-MB-231 (Xenogen Corp.)
(§7) The carcinoma cells are trypsinized and counted. The cells (3000-8000 count) are added to each well of a 96-well CytoStar tissue culture treated scintillating microplate (Amersham #RPNQ0160) in complete medium (100 μL) and the plate is then incubated in complete medium for 24 hrs at 37° C. in an inert atmosphere containing 5% CO2. Test compound (1 μL) in 100% DMSO is added to the plate test-wells with DMSO only added to control-wells. The plate is incubated in complete medium for a second 24 hr period at 37° C. in an atmosphere containing 5% CO2.
(§8) An aliquot of a solution of Methyl ^14C-thymidine (56 mC/mmol) (NEN #NEC568 or Amersham #CFA532) and complete medium (20 uL to provide 0.2 μCi/well) is then added to each well and the plate is incubated for a third 24 hr period at 37° C. in an atmosphere containing 5% CO2. The plate contents are then discarded, the plate is washed twice with PBS (200 μL) and then PBS (200 μL) is added to each well. The plate is sealed and the degree of methyl ^14C-thymidine incorporation is quantified on a Packard Top Count.

HCT-116 colon carcinoma = assay: Cell Proliferation Inhibition Assay (14C-thymidine incorporation), HCT-116; type: cell-based; details: Homo sapiens
Source text: as §5, §6, §7, §8

A375 malignant melanoma = assay: Cell Proliferation Inhibition Assay (14C-thymidine incorporation), A375; type: cell-based; details: Homo sapiens, A-375
Source text: as §5, §6, §7, §8

T1 sequence (P00533 669-1210 limits assumed): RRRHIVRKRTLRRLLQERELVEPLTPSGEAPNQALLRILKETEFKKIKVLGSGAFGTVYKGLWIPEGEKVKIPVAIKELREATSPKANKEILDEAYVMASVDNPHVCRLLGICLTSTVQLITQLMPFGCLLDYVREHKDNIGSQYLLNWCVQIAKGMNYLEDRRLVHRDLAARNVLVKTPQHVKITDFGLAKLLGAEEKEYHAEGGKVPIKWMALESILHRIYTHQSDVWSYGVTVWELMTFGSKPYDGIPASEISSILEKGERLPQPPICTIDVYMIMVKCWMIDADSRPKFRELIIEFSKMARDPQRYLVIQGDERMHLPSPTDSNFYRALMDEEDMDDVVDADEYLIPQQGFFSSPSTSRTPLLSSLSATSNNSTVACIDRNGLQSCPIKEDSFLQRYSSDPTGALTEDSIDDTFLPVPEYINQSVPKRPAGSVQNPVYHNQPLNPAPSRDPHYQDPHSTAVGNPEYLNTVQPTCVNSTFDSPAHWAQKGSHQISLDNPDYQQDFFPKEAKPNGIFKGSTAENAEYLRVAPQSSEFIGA
T2 sequence (P06493 whole entry): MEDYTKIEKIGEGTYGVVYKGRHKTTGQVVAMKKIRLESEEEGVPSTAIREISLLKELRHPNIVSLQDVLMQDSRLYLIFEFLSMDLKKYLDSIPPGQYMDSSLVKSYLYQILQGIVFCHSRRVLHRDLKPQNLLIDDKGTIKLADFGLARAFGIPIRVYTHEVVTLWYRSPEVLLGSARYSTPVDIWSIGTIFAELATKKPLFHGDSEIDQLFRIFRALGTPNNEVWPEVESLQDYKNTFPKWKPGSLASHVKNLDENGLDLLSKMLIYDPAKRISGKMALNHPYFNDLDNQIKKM
T2 sequence (P14635 whole entry partner): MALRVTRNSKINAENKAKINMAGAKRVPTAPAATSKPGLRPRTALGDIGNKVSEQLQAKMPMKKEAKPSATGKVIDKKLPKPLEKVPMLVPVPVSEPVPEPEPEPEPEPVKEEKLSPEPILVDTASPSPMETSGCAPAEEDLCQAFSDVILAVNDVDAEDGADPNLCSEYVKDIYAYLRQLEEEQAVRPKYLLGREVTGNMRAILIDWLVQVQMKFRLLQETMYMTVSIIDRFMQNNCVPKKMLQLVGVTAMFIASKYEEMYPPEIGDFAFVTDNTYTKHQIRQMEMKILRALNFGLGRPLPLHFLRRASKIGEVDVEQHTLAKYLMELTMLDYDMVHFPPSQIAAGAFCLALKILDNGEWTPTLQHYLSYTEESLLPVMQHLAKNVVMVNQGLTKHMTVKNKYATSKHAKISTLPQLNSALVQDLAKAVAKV
Chain of VEGFR2 (O08775 786-1343): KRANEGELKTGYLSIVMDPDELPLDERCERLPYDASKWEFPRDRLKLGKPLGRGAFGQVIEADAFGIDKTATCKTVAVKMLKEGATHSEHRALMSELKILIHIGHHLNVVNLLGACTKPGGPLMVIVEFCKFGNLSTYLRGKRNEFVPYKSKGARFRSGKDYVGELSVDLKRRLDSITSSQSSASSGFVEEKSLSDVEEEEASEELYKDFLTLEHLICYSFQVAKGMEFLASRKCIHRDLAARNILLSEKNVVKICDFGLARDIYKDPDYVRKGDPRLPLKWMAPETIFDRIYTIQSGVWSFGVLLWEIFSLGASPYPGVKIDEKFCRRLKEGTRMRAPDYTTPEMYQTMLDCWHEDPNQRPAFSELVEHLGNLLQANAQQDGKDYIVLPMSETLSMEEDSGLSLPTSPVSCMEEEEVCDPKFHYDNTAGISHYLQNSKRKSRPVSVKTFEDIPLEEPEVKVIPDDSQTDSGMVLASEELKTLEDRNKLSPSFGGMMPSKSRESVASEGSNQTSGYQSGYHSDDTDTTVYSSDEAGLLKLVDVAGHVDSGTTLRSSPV

inhibition at 2 µM (EGFR)	IC50 (CDK1)	IC50 (CDK2)	IC50 (VEGFR2)	IC50 [1]	IC50 (HCT-116 colon carcinoma)	IC50 (A375 malignant melanoma)	SMILES
23%	2.79 µM	0.493 µM	> 100 µM	100 µM	100 µM	1.2 µM	CC(C)(C)n1ncc2c(Nc3ccc(S(=O)(=O)NCCO)cc3)nc(Nc3ccc(S(=O)(=O)NCCO)cc3)nc21 [Cpd 18, 1-t-butyl-N^4,N^6-bis-{4-[(2-hydroxy-ethyl)-amino-sulfonyl]-phenyl}-1H-pyrazolo[3,4-d]pyrimidine-4,6-diamine]
25%	24.7 µM	7.62 µM	6.98 µM	100 µM	100 µM	100 µM	NS(=O)(=O)c1ccc(Nc2nc(Nc3ccccn3)c3cn[nH]c3n2)cc1 [Cpd 8, 4-[4-(pyridin-2-ylamino)-1H-pyrazolo[3,4-d]pyrimidin-6-ylamino]-benzenesulfonamide]
